According to PMC8708390, “Fatty Acid Modification of the Anticancer Peptide LVTX-9 to Enhance Its Cytotoxicity against Malignant Melanoma Cells” (Toxins, 2021):
Where no end group is shown, it is not given here.

Assays:
B16-F10 cells [1] = test: CCK-8 cell viability assay, B16-F10 cells; type: cell-based, mouse; conditions: 50 μM, 24 h of treatment, serum-free medium (Figure 3B)
Method: Mouse skin melanoma cells (B16-F10) were cultured in RPMI-1640 (Gibco), and mouse fibroblast cells (L-929), human lung carcinoma cells (A549), mouse breast cells (4T1), human hepatocarcinoma cells (HepG2), and human cervical carcinoma cells (Hela) were cultured in Dulbecco’s Modified Eagle Medium (DMEM, Gibco). All culture medium contained 10% fetal bovine serum (serum, Gibco), 100 U/mL of penicillin, and […] of streptomycin at 37 °C with 5% CO2.
Cell viability was quantified using a CCK-8 assay. At first, cells were seeded into a 96-well plate at approximately 2 × 10^3 cells/well. The following day, we created a 2-fold dilution series of each peptide using fresh medium (with or without 10% serum) for the treated cells, and cell viability was detected at 450 nm via a CCK-8 assay using an Absorbance Microplate Reader (BioTek Instruments, Winooski, VT, USA) following 24 h of drug incubation. The activity curves and IC50 values of the peptides were visualized using GraphPad prism 5.0.

erythrocytes = test: Hemolytic activity; type: cell-based; conditions: 1% RBC in PBS, 30 min at 37 °C, absorbance 450 nm, 0.1% Triton-X 100 positive control
Method: The hemolytic activity levels of LVTX-9 and LVTX-9-C18 were confirmed as follows. Red blood cells (RBC) were washed with sterile PBS and centrifuged for 5 min at 1000 rpm. The supernatant was removed, and cells were resuspended in PBS at a final concentration of 1% (5 × 10^6/mL). The diluted RBC suspension (50 µL) was mixed with PBS (negative control), 0.1% Triton-X 100 (positive control), and LVTX-9 or LVTX-9-C18 with various concentrations at a 1:1 ratio. The mixtures were incubated for 30 min at 37 °C, then centrifuged for 5 min at 12,000 rpm. The supernatant (90 µL) was added to a new 96-well plate to measure the absorbance at 450 nm using a microplate reader, and we produced hemolytic activity curves by GraphPad prism 5.0.

B16-F10 cells [2] = test: LDH leakage assay; type: cell-based, mouse; conditions: 25 μM, 24 h, absorbance 490 nm, n = 3
Method: At first, the B16-F10 cells were cultured in 96-well plates for 24 h at approximately 2 × 10^3 cells/well. Subsequently, the cells were treated for 24 h with LVTX-9 or LVTX-9-C18 with a series of concentration gradients. LDH leakage detection was detected using an LDH Cytotoxicity Assay Kit according to the manufacturer’s instructions (Beyotime, Shanghai, China. C0017). The absorption was measured using an Absorbance Microplate Reader (BioTek Instruments) at 490 nm. The LDH release (%) of peptides was calculated by GraphPad prism 5.0.

## ASIGALIQKAIALIKAKAA-NH2 (C-terminus assumed) [LVTX-9]
B16-F10 cells [1]
  effect on cell viability at 50 μM: no significant effect on cell viability
erythrocytes
  hemolytic activity at 200 μM: almost no hemolytic activity
B16-F10 cells [2]
  LDH release at 25 μM: ~ 2%
